Results on three molecules are retold here after ChEMBL document CHEMBL1201862, “PubChem BioAssay data set” (2004).

For orientation: IC50 means the concentration that inhibits the measured activity by half. As usually defined, the EC50 is the concentration at which the effect is half-maximal. The AC50 is the concentration giving half of the maximal activity seen. In general, CC50 refers to the concentration giving 50% cytotoxicity.

The target of assay [1] is Photoreceptor-specific nuclear receptor (Homo sapiens, UniProt Q9Y5X4). Type of assay: functional.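 Also: potency for compounds that break the NR2E3 corepressor complex and count as activators.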
Photoreceptor-specific nuclear receptor, sequence (Q9Y5X4 whole entry): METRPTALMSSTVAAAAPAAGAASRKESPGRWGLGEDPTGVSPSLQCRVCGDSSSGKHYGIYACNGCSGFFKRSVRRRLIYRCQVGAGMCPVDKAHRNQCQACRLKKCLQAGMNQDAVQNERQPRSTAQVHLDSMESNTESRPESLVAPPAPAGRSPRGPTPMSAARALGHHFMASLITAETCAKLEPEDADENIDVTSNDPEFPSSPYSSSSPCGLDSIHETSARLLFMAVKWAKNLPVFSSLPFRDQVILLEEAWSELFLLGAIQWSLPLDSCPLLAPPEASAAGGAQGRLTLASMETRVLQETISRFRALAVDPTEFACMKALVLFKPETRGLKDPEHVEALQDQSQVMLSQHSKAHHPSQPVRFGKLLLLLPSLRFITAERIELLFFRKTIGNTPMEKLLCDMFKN
The target in assay [2] is T1, Induced myeloid leukemia cell differentiation protein Mcl-1 (Homo sapiens, UniProt Q07820). Type of assay: functional.
T1 sequence (Q07820 whole entry): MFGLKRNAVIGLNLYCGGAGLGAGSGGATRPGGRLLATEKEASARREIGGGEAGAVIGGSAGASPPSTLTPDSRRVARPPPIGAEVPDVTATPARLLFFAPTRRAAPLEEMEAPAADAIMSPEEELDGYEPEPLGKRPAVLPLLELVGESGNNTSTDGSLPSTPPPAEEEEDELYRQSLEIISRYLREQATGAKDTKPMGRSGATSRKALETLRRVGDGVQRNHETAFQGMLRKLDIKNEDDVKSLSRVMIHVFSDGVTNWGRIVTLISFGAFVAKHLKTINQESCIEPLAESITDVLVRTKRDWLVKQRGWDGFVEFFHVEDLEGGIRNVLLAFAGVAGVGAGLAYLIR
Assay [3] concerns the target Peroxisome proliferator-activated receptor gamma/Nuclear receptor corepressor 2 (Homo sapiens, UniProt P37231+Q9Y618). Type of assay: functional.
The target of assay [4] is T1, Induced myeloid leukemia cell differentiation protein Mcl-1. Nature of the assay: MCL1-BIM BH3 interaction inhibitors, dose response, biochemical, fluorescence polarization, BIM-BH3 peptide, 1536-well (AID 2217). In general terms: Polarisation of emitted light reports the rotation of a fluorescent probe.
The next assay deals with Bcl-2-like protein 1 (Homo sapiens, UniProt Q07817). In words: BCL-XL inhibitors, dose response, selectivity assay for MCL1 inhibitor project, biochemical, fluorescence polarization, 1536-well (AID 2218).
Bcl-2-like protein 1, sequence (Q07817 whole entry): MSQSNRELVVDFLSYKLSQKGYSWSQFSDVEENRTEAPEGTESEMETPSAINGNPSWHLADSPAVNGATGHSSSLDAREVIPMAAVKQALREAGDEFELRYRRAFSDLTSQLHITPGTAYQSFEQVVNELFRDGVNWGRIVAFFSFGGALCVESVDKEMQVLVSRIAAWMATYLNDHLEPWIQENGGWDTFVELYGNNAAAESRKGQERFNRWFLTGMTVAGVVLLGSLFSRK
The next assay deals with T2, Bcl-2-like protein 10 (Homo sapiens, UniProt Q9HD36).
T2 sequence (Q9HD36 whole entry): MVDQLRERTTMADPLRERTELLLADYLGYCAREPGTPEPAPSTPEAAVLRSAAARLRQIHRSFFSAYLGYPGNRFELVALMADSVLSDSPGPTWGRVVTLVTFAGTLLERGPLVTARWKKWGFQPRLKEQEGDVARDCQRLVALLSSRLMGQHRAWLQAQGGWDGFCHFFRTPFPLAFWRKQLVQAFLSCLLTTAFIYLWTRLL
In words: Biochemical TR3 FP assay of Bcl-B inhibitor potency, EC50 (AID 1243). It is filed as functional.

In assay [5] the test system is HEK293. Nature of the assay: NOD2 signaling inhibitors in MDP-stimulated cells, cell-based, uHTS, luminescence (AID 2001). It is filed as functional. The following applies: Homo sapiens.
A short description of assay [6]: NIH-3T3 fibroblast cytotoxicity, dose response, cytotoxicity control, cell-based, fluorescence, Alamar Blue, secondary assay (AID 2327).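 Also: NIH-3T3 mouse fibroblasts cultured with fluconazole at 8 µg/mL.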 It is filed as functional. In general terms: The colour change of resazurin is a common sign of viable cells or microbes.
Assay [7] relates to HEK293. Nature of the assay: cells. The following applies: Homo sapiens.
A short description of assay [8]: cytotoxicity toward NIH3T3 fibroblasts, dose response, counter-screen, cell-based, ATP luminescence, mouse fibroblasts (AID 2010).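 Also: cells exposed to compound for about 90 hours before reading.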 Type of assay: functional. A general note: Counterscreens check selectivity or assay interference.
Assay [9] addresses T3, Interleukin-8 (Homo sapiens, UniProt P10145).
T3 sequence (P10145 whole entry): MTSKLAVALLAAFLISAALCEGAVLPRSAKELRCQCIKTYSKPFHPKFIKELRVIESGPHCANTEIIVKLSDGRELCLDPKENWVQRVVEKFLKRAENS
Nature of the assay: SAR analysis of GM-Tri-DAP induced IL-8 secretion in MCF-7/NOD1 cells - Set 2. [Related pubchem assays (depositor defined):AID1575, AID1578, AID2333]. Type of assay: functional, cell-based.

Assay [10] is described as follows: C. albicans growth with fluconazole, confirmation, fluorescence, retest (AID 2467). Type of assay: functional, cell-based.
Assay [11] in a line: Luminescence-based counterscreen assay for KLF5 inhibitors: dose response cell-based high throughput screening assay to identify cytotoxic compounds using the IEC-6 intestinal epithelial cell line. [Related pubchem assays: 1700 (Primary screen.), 1834 (Confirmation screen.), 1858 (Summary AID.), 1905 (Counterscreen.)]. It is filed as functional.
The target in assay [12] is T4, Nucleotide-binding oligomerization domain-containing protein 1 (Homo sapiens, UniProt Q9Y239).
T4 sequence (Q9Y239 whole entry): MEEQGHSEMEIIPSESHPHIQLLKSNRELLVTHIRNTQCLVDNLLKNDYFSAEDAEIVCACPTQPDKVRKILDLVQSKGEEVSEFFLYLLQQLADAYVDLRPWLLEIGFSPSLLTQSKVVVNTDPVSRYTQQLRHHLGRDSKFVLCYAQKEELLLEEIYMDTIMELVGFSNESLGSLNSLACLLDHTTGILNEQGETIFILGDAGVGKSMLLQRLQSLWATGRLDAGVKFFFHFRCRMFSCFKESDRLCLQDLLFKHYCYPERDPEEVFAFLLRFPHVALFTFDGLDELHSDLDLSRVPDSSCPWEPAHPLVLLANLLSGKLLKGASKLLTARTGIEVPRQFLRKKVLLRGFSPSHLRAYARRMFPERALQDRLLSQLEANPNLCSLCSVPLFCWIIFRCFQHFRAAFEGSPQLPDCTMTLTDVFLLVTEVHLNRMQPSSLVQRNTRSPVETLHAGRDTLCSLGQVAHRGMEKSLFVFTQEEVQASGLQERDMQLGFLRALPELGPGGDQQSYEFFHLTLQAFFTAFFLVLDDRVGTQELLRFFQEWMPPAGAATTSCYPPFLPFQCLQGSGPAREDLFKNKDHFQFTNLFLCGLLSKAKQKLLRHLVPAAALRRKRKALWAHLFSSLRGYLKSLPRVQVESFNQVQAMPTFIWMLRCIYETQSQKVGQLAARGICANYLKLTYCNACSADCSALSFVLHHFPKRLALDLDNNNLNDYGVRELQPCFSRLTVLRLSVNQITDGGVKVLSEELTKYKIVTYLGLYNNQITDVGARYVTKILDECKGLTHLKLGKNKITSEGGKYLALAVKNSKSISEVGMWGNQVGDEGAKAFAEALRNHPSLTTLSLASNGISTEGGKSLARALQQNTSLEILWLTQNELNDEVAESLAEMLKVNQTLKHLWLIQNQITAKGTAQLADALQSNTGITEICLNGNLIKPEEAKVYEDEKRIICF
In words: NOD1 signaling inhibitors, SAR follow-up, revised (AID 2333). It is filed as functional.

The nature of assay [13]: Luminescence Cell-Based Dose Response HTS to Identify Inhibitors of 5'UTR Stem-Loop Driven Prion Protein mRNA Translation in H4 Neuroglioblastoma Cells. [Related pubchem assays: 1827 (Project Summary), 1813 (Primary HTS)]. It is filed as functional.
Assay [14] in a line: inhibitors of firefly luciferase expression or activity, dose response, H4 neuroglioma cells, luminescence (AID 1990). Type of assay: functional, cell-based.
Assay [15] deals with HEK293. Nature of the assay: cells. It is filed as functional, cell-based. The following applies: Homo sapiens.
Assay [16] relates to HEK293. Nature of the assay: cells. It is filed as functional, cell-based. The following applies: Homo sapiens. This is another data set of the same source.
In another assay the test system is INS1. In words: beta cell apoptosis inhibitors, cytokine rescue, dose response, luminescence, retest (AID 449756).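 Also: cell death triggered by IL-1 beta plus TNF-alpha plus IFN-gamma mixture; protective hits raise ATP signal compared with cytokine alone wells.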 Type of assay: functional, cell-based. Conditions: Rattus norvegicus.
Assay [17] has as its system HEK293. In words: NOD1 signaling inhibitors, primary screen, cell-based, luminescence, uHTS (AID 1578). The following applies: Homo sapiens. It is filed as functional.
The test system of assay [18] is Vero. Nature of the assay: cells. The following applies: Chlorocebus sabaeus. It is filed as functional.
Assay [19] can be described thus: inhibitors of intracellular T. cruzi replication, confirmation, NIH3T3 host cells, beta-gal luminescence (AID 2044).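 Also: intracellular parasites grown in NIH/3T3 mouse fibroblasts as host cells; luminescent beta-galactosidase reporter signal from transgenic T. cruzi replicating inside host cells; inhibitors lower the luminescence signal.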 Type of assay: functional, cell-based.
Assay [20] concerns the target T5, Nucleotide-binding oligomerization domain-containing protein 2 (Homo sapiens, UniProt Q9HC29). Nature of the assay: NOD2 signaling inhibitors, cell-based, luminescence, uHTS, HEK293 (AID 1566). It is filed as functional.
The nature of assay [21]: inhibitors of SNCA 5'UTR-driven reporter translation, confirmation, H4 neuroglioma cells, luminescence (AID 1988). It is filed as functional, cell-based.
Assay [22] deals with Vero. In words: cells. Type of assay: functional, cell-based. The following applies: Chlorocebus sabaeus.
A further assay has as its target Tumor necrosis factor (Homo sapiens, UniProt P01375). In words: TNFa-triggered NF-kB activation inhibitors, SAR follow-up, cell-based, revised (AID 2337). It is filed as functional.
Assay [23] addresses T5, Nucleotide-binding oligomerization domain-containing protein 2. Nature of the assay: PubChem AID 2334. Type of assay: functional.
A further assay concerns the target Paired box protein Pax-8 (Homo sapiens, UniProt Q06710). In words: inhibitors of PAX8-driven TPO luciferase reporter, dose response, RMG-I cells, cherry-pick (AID 687027).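 Also: luciferase reporter driven by Pax8 target thyroperoxidase promoter measured by SteadyGlo luminescence.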 It is filed as functional, cell-based.
In assay [24] the target is T3, Interleukin-8. In words: SAR analysis of Tumor necrosis factor alpha (TNF-alpha) induced IL-8 secretion in MCF-7/NOD1 cells - Set 2. [Related pubchem assays (depositor defined):AID1575, AID2250, AID2260]. It is filed as functional, cell-based.
For assay [25], the system named is HEK293. In words: cells. It is filed as functional, cell-based. The following applies: Homo sapiens. The source holds these as a separate data set.
In assay [26] the target is Serine/threonine-protein phosphatase (Homo sapiens, UniProt Q9BPW0). Nature of the assay: Counterscreen for inhibitors of PP1: fluorescence-based biochemical high throughput dose response assay to identify inhibitors of Protein Phosphatase 5 (PP5). [Related pubchem assays: 2034 (Summary (PP5 inhibitors)), 1987 (PP5 inhibitors in singlate), 2235 (PP1 inhibitors in singlate)].
Serine/threonine-protein phosphatase, sequence (Q9BPW0 whole entry): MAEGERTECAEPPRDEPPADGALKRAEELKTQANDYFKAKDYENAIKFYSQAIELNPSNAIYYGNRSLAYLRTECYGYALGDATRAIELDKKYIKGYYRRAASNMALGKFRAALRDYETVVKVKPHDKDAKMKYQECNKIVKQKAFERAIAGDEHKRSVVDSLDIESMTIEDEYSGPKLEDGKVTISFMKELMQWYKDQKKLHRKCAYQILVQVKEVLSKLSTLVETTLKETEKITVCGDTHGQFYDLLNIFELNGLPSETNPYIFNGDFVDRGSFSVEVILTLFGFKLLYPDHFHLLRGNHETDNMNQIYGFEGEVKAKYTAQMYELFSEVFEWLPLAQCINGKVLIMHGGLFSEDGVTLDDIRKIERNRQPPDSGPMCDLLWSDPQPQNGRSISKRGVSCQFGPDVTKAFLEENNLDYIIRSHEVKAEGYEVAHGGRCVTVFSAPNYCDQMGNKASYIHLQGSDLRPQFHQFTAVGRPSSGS

Assay [27] has as its target Serine/threonine-protein phosphatase PP1-alpha catalytic subunit (Homo sapiens, UniProt P62136). Nature of the assay: PP1 phosphatase inhibitors, dose response, biochemical, fluorescence (AID 2403).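 Also: phosphatase turnover of OMFP into fluorescent 3-O-methylfluorescein.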
The target in a further assay is Nonstructural protein 1 (Influenza A virus, UniProt Q194T2). It is filed as functional, Influenza A virus (A/California/07/2009(H1N1)).
Nonstructural protein 1, sequence (Q194T2 whole entry): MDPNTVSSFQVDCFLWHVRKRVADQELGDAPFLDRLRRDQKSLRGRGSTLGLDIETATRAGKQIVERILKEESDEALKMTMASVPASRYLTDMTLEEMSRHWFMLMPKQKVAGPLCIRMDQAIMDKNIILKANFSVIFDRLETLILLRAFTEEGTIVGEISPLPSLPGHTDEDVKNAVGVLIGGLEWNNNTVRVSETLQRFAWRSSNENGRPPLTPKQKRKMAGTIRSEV

Calls of active or inactive are those of the source.

T5 sequence (Q9HC29 whole entry, the tested form may be a part): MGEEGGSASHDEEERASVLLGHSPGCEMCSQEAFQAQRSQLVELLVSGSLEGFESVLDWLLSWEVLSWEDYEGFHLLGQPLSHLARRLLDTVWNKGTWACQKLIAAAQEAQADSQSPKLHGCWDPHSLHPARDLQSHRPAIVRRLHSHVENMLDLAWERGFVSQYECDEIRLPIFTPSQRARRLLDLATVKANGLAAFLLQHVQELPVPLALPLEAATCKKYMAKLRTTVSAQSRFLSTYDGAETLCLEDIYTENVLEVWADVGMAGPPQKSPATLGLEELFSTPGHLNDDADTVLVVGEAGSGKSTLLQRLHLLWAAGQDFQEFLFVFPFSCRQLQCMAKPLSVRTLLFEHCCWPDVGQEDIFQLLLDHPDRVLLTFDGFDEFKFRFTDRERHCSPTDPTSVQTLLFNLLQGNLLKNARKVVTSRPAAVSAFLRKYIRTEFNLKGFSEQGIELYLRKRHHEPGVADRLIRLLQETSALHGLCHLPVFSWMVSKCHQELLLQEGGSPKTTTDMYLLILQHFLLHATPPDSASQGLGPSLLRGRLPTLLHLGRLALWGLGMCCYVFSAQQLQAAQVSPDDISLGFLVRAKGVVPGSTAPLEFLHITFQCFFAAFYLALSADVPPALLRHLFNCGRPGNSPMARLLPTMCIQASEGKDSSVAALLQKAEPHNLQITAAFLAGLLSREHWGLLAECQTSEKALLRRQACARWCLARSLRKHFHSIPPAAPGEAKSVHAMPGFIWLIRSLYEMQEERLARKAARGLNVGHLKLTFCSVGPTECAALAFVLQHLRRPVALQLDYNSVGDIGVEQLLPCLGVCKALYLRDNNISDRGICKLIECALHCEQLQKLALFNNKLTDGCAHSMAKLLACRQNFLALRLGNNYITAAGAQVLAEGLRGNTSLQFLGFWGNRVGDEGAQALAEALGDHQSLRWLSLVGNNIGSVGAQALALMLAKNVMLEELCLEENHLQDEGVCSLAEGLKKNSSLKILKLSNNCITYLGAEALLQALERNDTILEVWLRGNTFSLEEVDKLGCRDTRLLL
Paired box protein Pax-8, sequence (Q06710 whole entry): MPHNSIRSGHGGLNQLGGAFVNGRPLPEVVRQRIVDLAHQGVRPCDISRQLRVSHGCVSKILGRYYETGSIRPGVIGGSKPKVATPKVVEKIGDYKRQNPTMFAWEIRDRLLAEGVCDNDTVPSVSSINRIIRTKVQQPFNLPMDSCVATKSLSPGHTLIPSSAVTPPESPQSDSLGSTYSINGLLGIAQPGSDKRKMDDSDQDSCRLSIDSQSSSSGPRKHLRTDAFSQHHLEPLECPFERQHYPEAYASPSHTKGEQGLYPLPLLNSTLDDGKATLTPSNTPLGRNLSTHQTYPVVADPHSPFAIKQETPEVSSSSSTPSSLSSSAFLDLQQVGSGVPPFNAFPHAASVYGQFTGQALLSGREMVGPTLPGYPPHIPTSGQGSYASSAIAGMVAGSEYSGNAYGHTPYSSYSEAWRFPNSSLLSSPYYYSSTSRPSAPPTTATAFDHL
Serine/threonine-protein phosphatase PP1-alpha catalytic subunit, sequence (P62136 whole entry): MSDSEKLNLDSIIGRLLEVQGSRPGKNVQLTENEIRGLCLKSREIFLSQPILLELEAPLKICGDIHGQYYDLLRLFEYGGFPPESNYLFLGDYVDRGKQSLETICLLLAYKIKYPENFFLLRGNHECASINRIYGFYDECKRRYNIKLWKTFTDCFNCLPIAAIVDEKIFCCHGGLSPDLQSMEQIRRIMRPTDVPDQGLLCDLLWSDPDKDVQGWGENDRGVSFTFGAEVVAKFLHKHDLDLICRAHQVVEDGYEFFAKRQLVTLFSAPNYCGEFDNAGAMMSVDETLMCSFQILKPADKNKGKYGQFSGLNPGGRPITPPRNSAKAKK
Tumor necrosis factor, sequence (P01375 whole entry, the tested form may be a part): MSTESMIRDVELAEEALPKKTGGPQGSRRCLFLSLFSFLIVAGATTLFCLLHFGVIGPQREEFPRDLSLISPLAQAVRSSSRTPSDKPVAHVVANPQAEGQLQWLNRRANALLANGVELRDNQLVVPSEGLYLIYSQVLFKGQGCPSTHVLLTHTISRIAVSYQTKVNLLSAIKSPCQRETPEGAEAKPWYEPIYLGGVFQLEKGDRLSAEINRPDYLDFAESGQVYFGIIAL

Turning to `Cc1ccc(-c2cc(C(=O)O)c3cc(Br)ccc3n2)o1`, the IC50 was > 39.8 µM (not active) in assay [1]; 2.98 µM (active) in [2]; 3.93 µM (active) in [3]; 27.9 µM (not active) in [4]; > 109 µM (not active) against Bcl-2-like protein 1. For the same molecule, the EC50 at Bcl-2-like protein 10 was 16.5 µM (active).

For the molecule `Oc1ccc(N=Nc2ccccc2C(F)(F)F)c2cccnc12`, the IC50 was 4.21 µM (inactive) in the assay with HEK293 [5]; > 20 µM (inactive) in the assay on HEK293 [7]; 19.8 µM (active) at Interleukin-8 [9]; 6.27 µM (active) in assay [11]; > 20 µM (inactive) in assay [12]; > 20 µM (inactive) with HEK293 [15]. Besides, the IC50 was > 20 µM (inactive) with HEK293 [16]; > 25 µM (active) in the assay with Vero [22]; 7.03 µM (active) at Tumor necrosis factor; > 20 µM (inactive) in assay [23]; > 25 µM (inactive) on Interleukin-8 [24]; > 20 µM (inactive) with HEK293 [25]. Also, the EC50 is > 160 µM (inactive) in assay [6]; 6.95 µM (active) in assay [8]; 1.57 µM (active) in assay [10]; 1.08 µM (active) in assay [13]; 1.9 µM (active) in assay [14]; 3.71 µM (active) in the assay on HEK293 [17]. Besides, the EC50 is 0.633 µM (active) in [19], > 20 µM (inactive) in [20] and 0.308 µM (active) in [21]. Moreover, the AC50 in the assay with INS1 is 1.17 µM (active); on Paired box protein Pax-8, 4.15 µM (active). Further, in the assay with Vero [18], the CC50 is 4.62 µM (active).

With `Cc1ccn2c(Nc3ccc4c(c3)OCO4)c(-c3ccccn3)nc2c1`, the IC50 in [26] is 37.9 µM (not active); in [27], 6.76 µM (active); on Nonstructural protein 1, 11.5 µM (active).
